# Key:
# Assay type in all cases: cell-based, human
# PC-3 = assay: NCI60 antitumor screening; details: 10 μM one-dose
# NCI-H226 = assay: NCI60 antitumor screening; details: 10 μM one-dose
# ACHN = assay: NCI60 antitumor screening; details: 10 μM one-dose
# HOP-62 = assay: NCI60 antitumor screening; details: 10 μM one-dose
# SR = assay: NCI60 antitumor screening; details: 10 μM one-dose
# K-562 = assay: NCI60 antitumor screening; details: 10 μM one-dose
# SK-OV-3 = assay: NCI60 antitumor screening; details: 10 μM one-dose
# M14 = assay: NCI60 antitumor screening; details: 10 μM one-dose
# OVCAR-3 = assay: NCI60 antitumor screening; details: 10 μM one-dose
# HCT-116 = assay: NCI60 antitumor screening; details: 10 μM one-dose
# IGROV1 = assay: NCI60 antitumor screening; details: 10 μM one-dose
# SF-539 = assay: NCI60 antitumor screening; details: 10 μM one-dose
# MALME-3M = assay: NCI60 antitumor screening; details: 10 μM one-dose
# NCI/ADR-RES = assay: NCI60 antitumor screening; details: 10 μM one-dose
# RPMI-8226 = assay: NCI60 antitumor screening; details: 10 μM one-dose
# 786–0 = assay: NCI60 antitumor screening; details: 10 μM one-dose
# SNB-75 = assay: NCI60 antitumor screening; details: 10 μM one-dose
# SNB-19 = assay: NCI60 antitumor screening; details: 10 μM one-dose
# SN12C = assay: NCI60 antitumor screening; details: 10 μM one-dose
# U251 = assay: NCI60 antitumor screening; details: 10 μM one-dose
# OVCAR-8 = assay: NCI60 antitumor screening; details: 10 μM one-dose
# HOP-92 = assay: NCI60 antitumor screening; details: 10 μM one-dose
# T-47D = assay: NCI60 antitumor screening; details: 10 μM one-dose
# CCRF-CEM = assay: NCI60 antitumor screening; details: 10 μM one-dose
# EKVX = assay: NCI60 antitumor screening; details: 10 μM one-dose
# SK-MEL-2 = assay: NCI60 antitumor screening; details: 10 μM one-dose
# SK-MEL-28 = assay: NCI60 antitumor screening; details: 10 μM one-dose
# CAKI-1 = assay: NCI60 antitumor screening; details: 10 μM one-dose
# OVCAR-5 = assay: NCI60 antitumor screening; details: 10 μM one-dose
# RXF 393 = assay: NCI60 antitumor screening; details: 10 μM one-dose
# NCI-H23 = assay: NCI60 antitumor screening; details: 10 μM one-dose
# UACC-62 = assay: NCI60 antitumor screening; details: 10 μM one-dose
# SW-620 = assay: NCI60 antitumor screening; details: 10 μM one-dose
# HCT-15 = assay: NCI60 antitumor screening; details: 10 μM one-dose
# MDA-MB-468 = assay: NCI60 antitumor screening; details: 10 μM one-dose
# SF-295 = assay: NCI60 antitumor screening; details: 10 μM one-dose
# KM12 = assay: NCI60 antitumor screening; details: 10 μM one-dose
# BT-549 = assay: NCI60 antitumor screening; details: 10 μM one-dose
# HT29 = assay: NCI60 antitumor screening; details: 10 μM one-dose
# UACC-257 = assay: NCI60 antitumor screening; details: 10 μM one-dose
# MDA-MB-231/ATCC = assay: NCI60 antitumor screening; details: 10 μM one-dose
# MOLT-4 = assay: NCI60 antitumor screening; details: 10 μM one-dose
# SK-MEL-5 = assay: NCI60 antitumor screening; details: 10 μM one-dose
# A549/ATCC = assay: NCI60 antitumor screening; details: 10 μM one-dose
# NCI-H460 = assay: NCI60 antitumor screening; details: 10 μM one-dose
# DU-145 = assay: NCI60 antitumor screening; details: 10 μM one-dose
# LOX IMVI = assay: NCI60 antitumor screening; details: 10 μM one-dose
# NCI-H522 = assay: NCI60 antitumor screening; details: 10 μM one-dose
# MCF7 = assay: NCI60 antitumor screening; details: 10 μM one-dose
# A498 = assay: NCI60 antitumor screening; details: 10 μM one-dose
# COLO 205 = assay: NCI60 antitumor screening; details: 10 μM one-dose
# NCI60 cell lines panel = assay: NCI60 antitumor screening, full panel; details: 10 μM one-dose, mean over NCI60
# Method in brief: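 Single-concentration screen at 10 μM across the NCI60 panel (leukaemia, NSCLC, colon, CNS, melanoma, ovarian, renal, prostate, breast). Results are expressed as percent growth inhibition (GI%) of treated lines.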
# HCC-2998 = assay: NCI60 antitumor screening; details: 10 μM one-dose
# MDA-MB-435 = assay: NCI60 antitumor screening; details: 10 μM one-dose
# OVCAR-4 = assay: NCI60 antitumor screening; details: 10 μM one-dose
# HL-60(TB) = assay: NCI60 antitumor screening; details: 10 μM one-dose
# HS 578T = assay: NCI60 antitumor screening; details: 10 μM one-dose
# NCI-H322M = assay: NCI60 antitumor screening; details: 10 μM one-dose
# UO-31 = assay: NCI60 antitumor screening; details: 10 μM one-dose
# SF-268 = assay: NCI60 antitumor screening; details: 10 μM one-dose
# TK-10 = assay: NCI60 antitumor screening; details: 10 μM one-dose
smiles,measurement,setting,value
"Cc1ccc(CSc2nc(Cl)c(C#N)c(-c3ccc(F)cc3)n2)cc1 [3d, 4-Chloro-6-(4-fluorophenyl)-2-((4-methylbenzyl)thio)pyrimidine-5-carbonitrile]",GI%,PC-3,35.47%
same,GI%,NCI-H226,37.93%
same,GI%,ACHN,— (GI% < 10)
same,GI%,HOP-62,— (GI% < 10)
same,GI%,SR,— (GI% < 10)
same,GI%,K-562,42.83%
same,GI%,SK-OV-3,— (GI% < 10)
same,GI%,M14,— (GI% < 10)
same,GI%,OVCAR-3,— (GI% < 10)
same,GI%,HCT-116,25.73%
same,GI%,IGROV1,— (GI% < 10)
same,GI%,SF-539,15.58%
same,GI%,MALME-3M,— (GI% < 10)
same,GI%,NCI/ADR-RES,14.93%
same,GI%,RPMI-8226,25.03%
same,GI%,786–0,12.30%
same,GI%,SNB-75,— (GI% < 10)
same,GI%,SNB-19,— (GI% < 10)
same,GI%,SN12C,27.59%
same,GI%,U251,15.75%
same,GI%,OVCAR-8,— (GI% < 10)
same,GI%,HOP-92,34.25%
same,GI%,T-47D,46.84%
same,GI%,CCRF-CEM,29.71%
same,GI%,EKVX,20.92%
same,GI%,SK-MEL-2,— (GI% < 10)
same,GI%,SK-MEL-28,— (GI% < 10)
same,GI%,CAKI-1,16.99%
same,GI%,OVCAR-5,— (GI% < 10)
same,GI%,RXF 393,12.49%
same,GI%,NCI-H23,— (GI% < 10)
same,GI%,UACC-62,17.58%
same,GI%,SW-620,11.21%
same,GI%,HCT-15,24.97%
same,GI%,MDA-MB-468,— (GI% < 10)
same,GI%,SF-295,11.51%
same,GI%,KM12,19.05%
same,GI%,BT-549,18.08%
same,GI%,HT29,51.51%
same,GI%,UACC-257,— (GI% < 10)
same,GI%,MDA-MB-231/ATCC,— (GI% < 10)
same,GI%,MOLT-4,29.08%
same,GI%,SK-MEL-5,15.98%
same,GI%,A549/ATCC,16.81%
same,GI%,NCI-H460,— (GI% < 10)
same,GI%,DU-145,18.41%
same,GI%,LOX IMVI,— (GI% < 10)
same,GI%,NCI-H522,29.73%
same,GI%,MCF7,12.55%
same,GI%,A498,— (GI% < 10)
same,GI%,COLO 205,— (GI% < 10)
same,Mean GI%,NCI60 cell lines panel,12.62%
same,GI%,HCC-2998,— (GI% < 10)
same,GI%,MDA-MB-435,— (GI% < 10)
same,GI%,OVCAR-4,14.97%
same,GI%,HL-60(TB),51.77%
same,GI%,HS 578T,— (GI% < 10)
same,GI%,NCI-H322M,— (GI% < 10)
same,GI%,UO-31,17.01%
same,GI%,SF-268,12.95%
same,GI%,TK-10,— (GI% < 10)
"N#Cc1c(Cl)nc(SCc2ccccc2)nc1-c1ccc(F)cc1 [3a, 2-(Benzylthio)-4-chloro-6-(4-fluorophenyl) pyrimidine-5-carbonitrile]",GI%,PC-3,— (GI% < 10)
same,GI%,NCI-H226,18.61%
same,GI%,ACHN,45.51%
same,GI%,HOP-62,12.77%
same,GI%,SR,— (GI% < 10)
same,GI%,K-562,11.78%
same,GI%,SK-OV-3,— (GI% < 10)
same,GI%,M14,— (GI% < 10)
same,GI%,OVCAR-3,— (GI% < 10)
same,GI%,HCT-116,22.79%
same,GI%,IGROV1,— (GI% < 10)
same,GI%,SF-539,24.06%
same,GI%,MALME-3M,— (GI% < 10)
same,GI%,NCI/ADR-RES,20.64%
same,GI%,RPMI-8226,— (GI% < 10)
same,GI%,786–0,38.26%
same,GI%,SNB-75,— (GI% < 10)
same,GI%,SNB-19,16.70%
same,GI%,SN12C,— (GI% < 10)
same,GI%,U251,39.15%
same,GI%,OVCAR-8,27.14%
same,GI%,HOP-92,14.74%
same,GI%,T-47D,10.38%
same,GI%,CCRF-CEM,— (GI% < 10)
same,GI%,EKVX,— (GI% < 10)
same,GI%,SK-MEL-2,— (GI% < 10)
same,GI%,SK-MEL-28,— (GI% < 10)
same,GI%,CAKI-1,21.66%
same,GI%,OVCAR-5,— (GI% < 10)
same,GI%,RXF 393,19.19%
same,GI%,NCI-H23,— (GI% < 10)
same,GI%,UACC-62,— (GI% < 10)
same,GI%,SW-620,— (GI% < 10)
same,GI%,HCT-15,— (GI% < 10)
same,GI%,MDA-MB-468,— (GI% < 10)
same,GI%,SF-295,27.87%
same,GI%,KM12,— (GI% < 10)
same,GI%,BT-549,11.73%
same,GI%,HT29,— (GI% < 10)
same,GI%,UACC-257,— (GI% < 10)
same,GI%,MDA-MB-231/ATCC,21.72%
same,GI%,MOLT-4,— (GI% < 10)
same,GI%,SK-MEL-5,— (GI% < 10)
same,GI%,A549/ATCC,16.44%
same,GI%,NCI-H460,— (GI% < 10)
same,GI%,DU-145,— (GI% < 10)
same,GI%,LOX IMVI,— (GI% < 10)
same,GI%,NCI-H522,16.01%
same,GI%,MCF7,— (GI% < 10)
same,GI%,A498,— (GI% < 10)
same,GI%,COLO 205,— (GI% < 10)
same,Mean GI%,NCI60 cell lines panel,— (GI% < 10)
same,GI%,HCC-2998,— (GI% < 10)
same,GI%,MDA-MB-435,— (GI% < 10)
same,GI%,OVCAR-4,49.74%
same,GI%,HL-60(TB),44.03%
same,GI%,HS 578T,16.76%
same,GI%,NCI-H322M,— (GI% < 10)
same,GI%,UO-31,14.25%
same,GI%,SF-268,21.56%
same,GI%,TK-10,— (GI% < 10)
